Results on ten compounds are retold here after US5849888A, “Azoamide compound” (Wako Pure Chemical Industries, Ltd., priority 1996, dated 1998).

Data set [1] is described as follows: Solubility of azoamide compound in 100 g of solvent at 25° C. (Table 1). It counts as physicochemical. Particulars: for Solubility in ethyl acetate: in 100 g of ethyl acetate; for Solubility in toluene: in 100 g of toluene. The text has this:
*^) Solubility of each azoamide compound in 100 g of the solvent at
A polymerization initiator having solubility of generally 2% or more, preferably 5% or more has high applicability, and it can be found from the above Table 1 that any of the azoamide compounds of the present invention is suitable for a polymerization reaction using an organic solvent.

The nature of data set [2]: Half-life test (thermal decomposition in ethyl benzene, 10-hour half life temperature). It counts as physicochemical. Particulars: 1% (w/w) solution in ethyl benzene; calculated by Arrhenius equation. The method, then: Experiment 1. Half-life test
(§1) 1 Percent (w/w) solution of each azoamide compound obtained in Examples 1 to 7 in ethyl benzene is prepared. A concentration of the azoamide compound is measured in a thermostat at pre-determined interval by 1 hour unit and a coefficient of decomposition rate constant at each temperature is obtained and then the temperature for 10 -hour half life is calculated on the basis of the coefficient by Arrhenius equation.

Data set [3] can be described thus: Polymerization of styrene at 110° C. with azoamide initiator (Experiment 2). Particulars: 4×10^-4 M initiator. As for the experimental part:
(§2) 5 ml of styrene containing a 4×10^-4 M of azoamide compound which is obtained example 1, 3, or 6 were placed in individual glass tubes. After deairing, the tubes were sealed under reduced pressure. Each tube was placed into the thermostat adjusted at 110° C. to carry out the polymerization. The tube was took out from the thermostat after predetermined time, cooled under ice water immediately to stop polymerization. The reaction solution was poured into methanol to deposit and precipitate the obtained polymer. The precipitate was recovered by filtration, and dried at 60° C. under reduced pressure for 8 hours. The weight of the polymer obtained was measured and the conversion was calculated.

Data set [4] in a line: Decomposition rate constant at 110° C. (Table 3). It counts as physicochemical. The method, then:
as §1, §2

The conditions of data set [5]: in words, cited from earlier work; for solubility in an organic solvent: organic solvent used in solution polymerization of an oily soluble monomer.
Setting [6] is: listed as 2,2'-azobis (N-methyl-2-methyl propionamide).

Molecules are shown by their SMILES.

Turning to `CC(C)CNC(=O)C(C)(C)N=NC(C)(C)C(=O)NCC(C)C` [Example 2, 2,2'-azobis [N-(2-methylpropyl)-2-methylpropionamide]], in data set [1], the “Solubility in ethyl acetate” value was 14.0 g and the Solubility in toluene is 8.0 g. For the same compound, the “temperature for 10-hour half life” value in data set [2] was 112.0 °C.
For `CCCCNC(=O)C(C)(C)N=NC(C)(C)C(=O)NCCCC` [Example 3, 2,2'-azobis (N-butyl-2-methyl propionamide)], the “Solubility in ethyl acetate” value in data set [1] is reported as “easily soluble”. In data set [1], the Solubility in toluene result is given as “easily soluble”. In data set [2], the “temperature for 10-hour half life” value was 110.6 °C. The Conversion in data set [3] (polymerization time 1 h) is 9.2%; in data set [3] (polymerization time 2 h), 20.8%; in data set [3] (polymerization time 3 h), 30.8%; in data set [3] (polymerization time 4 h) it was 41.0%; in data set [3] (polymerization time 6 h) it was 61.2%; in data set [3] (polymerization time 8 h) it was 82.9%. In data set [4], this compound gave a decomposition rate constant of 1.79e-05 s⁻¹.
On to `CCNC(=O)C(C)(C)N=NC(C)(C)C(=O)NCC` [Example 7, 2,2'-azobis (N-ethyl-2-methyl propionamide)], for which, in data set [1], the “Solubility in ethyl acetate” value is given as 11.0 g and the Solubility in toluene was 4.0 g. In data set [2], the “temperature for 10-hour half life” value was 109.6 °C.
As for `CC(C)(N=NC(C)(C)C(=O)NCO)C(=O)NCO` [2,2'-azobis [2-methyl-N-(hydroxymethyl)-propionamide]], in data set [5], the solubility in water result was “water-soluble” and the “solubility in an organic solvent” value is on record as “poor soluble”.
In the case of `CNC(=O)C(C)(C)N=NC(C)(C)C(=O)NC` [Comparative example, 2,2'-azobis (N-methyl-2-methyl propionamide), reference compound], in data set [1], the “Solubility in ethyl acetate” value came to 1.2 g and the Solubility in toluene is not above 0.5 g. Further, in data set [1] (setting [6]), the “Solubility in ethyl acetate” value is on record as “low solubility” and the Solubility in toluene result is on record as “low solubility”. In addition, in data set [5], the solubility in water result was “water-soluble” and the “solubility in an organic solvent” value was “poor soluble”.
In the case of `CC(C)(N=NC(C)(C)C(N)=O)C(N)=O` [2,2'-azobis (2-methylpropionamide)], in data set [5], the solubility in water result was “water-soluble” and the “solubility in an organic solvent” value is recorded as “poor soluble”.
Take `CCCNC(=O)C(C)(C)N=NC(C)(C)C(=O)NCCC` [Example 6, 2,2'-azobis (N-propyl-2-methyl propionamide)]: the “Solubility in ethyl acetate” value in data set [1] is “easily soluble”. For the same compound, the Solubility in toluene entry in data set [1] is reported as “easily soluble”. Also, in data set [2], the “temperature for 10-hour half life” value was 110.8 °C. The Conversion in data set [3] (polymerization time 1 h) amounted to 9.0%; in data set [3] (polymerization time 2 h) it was 20.0%; in data set [3] (polymerization time 3 h), 31.2%; in data set [3] (polymerization time 4 h) it was 41.0%; in data set [3] (polymerization time 6 h), 62.4%; in data set [3] (polymerization time 8 h), 83.6%. In data set [4], this compound yielded a decomposition rate constant of 1.74e-05 s⁻¹.
For `CCCCCCNC(=O)C(C)(C)N=NC(C)(C)C(=O)NCCCCCC` [Example 5, 2,2'-azobis (N-hexyl-2-methyl propionamide)], in data set [1], the “Solubility in ethyl acetate” value was “easily soluble” and the Solubility in toluene entry is on record as “easily soluble”. Also, the “temperature for 10-hour half life” value in data set [2] was 111.6 °C.
Consider `CC(C)NC(=O)C(C)(C)N=NC(C)(C)C(=O)NC(C)C` [Example 4, 2,2'-azobis [N-(2-methylethyl)-2-methylpropionamide]], for which, in data set [1], the “Solubility in ethyl acetate” value amounted to 11.0 g and the Solubility in toluene turned out to be 5.0 g. Moreover, the “temperature for 10-hour half life” value in data set [2] was 111.2 °C.
As for `CC(C)(N=NC(C)(C)C(=O)NC1CCCCC1)C(=O)NC1CCCCC1` [Example 1, 2,2'-azobis (N-cyclohexyl-2-methyl propionamide)], the “Solubility in ethyl acetate” value in data set [1] came out at 3.5 g. The same compound displayed a Solubility in toluene in data set [1] of 5.5 g. Moreover, in data set [2], the “temperature for 10-hour half life” value was 111.0 °C. Moreover, the Conversion was 8.7% in data set [3] (polymerization time 1 h); 20.5% in data set [3] (polymerization time 2 h); 30.8% in data set [3] (polymerization time 3 h); 41.2% in data set [3] (polymerization time 4 h); 62.5% in data set [3] (polymerization time 6 h); 81.0% in data set [3] (polymerization time 8 h). Also, in data set [4], the decomposition rate constant was found to be 1.72e-05 s⁻¹.
